Source: US20050261319A1, “Novel 2-amino-4-quinazolinones and 2-amino-4-oxoquinazolones as LXR nuclear receptor binding compounds with partial agonistic properties” (priority 2002, published 2005)
Read-outs that look alike come from different tables or passages of the source.

Experiments:
Type in all cases: cell-based
GAL4-LXRa-LBD = biological target: T1, GAL4-LXRa-LBD (Homo sapiens, UniProt Q13133); test: Mammalian one hybrid (M1H) luciferase assay in HEK293 cells, LXR alpha LBD
T1 construct: expressed in transfected cells; host or cells: HEK293
T1 sequence (Q13133 209-447 limits assumed): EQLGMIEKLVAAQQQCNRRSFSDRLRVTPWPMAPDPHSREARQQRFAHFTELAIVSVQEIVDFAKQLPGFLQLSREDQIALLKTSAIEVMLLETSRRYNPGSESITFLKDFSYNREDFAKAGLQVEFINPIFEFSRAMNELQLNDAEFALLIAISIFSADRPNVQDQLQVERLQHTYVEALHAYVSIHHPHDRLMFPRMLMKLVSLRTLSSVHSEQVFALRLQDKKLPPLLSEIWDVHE
Protocol: (§1) For TR1040001892, TR1040011382, TR1040002211, and TR1040002212, HEK293 cells are grown in 96 well plates and co-transfected with pFR-luc (Stratagene) and pCMV-BD-LXRa-LBD or pCMV-BD-LXRb-LBD (each 100 ng of plasmid DNA per well). Transfection is carried using Lipfectamine 2000 (Gibco-BRL) according to the manufacturers protocol. The ligand binding domains (LBD) of LXRa and LXRb are cloned into the pCMV-BD-GW (the Gateway Reading Frame Cassette B is cloned as an EcoRV fragment into Sma1 site of pCMV-BD) applying the manufacturer protocols for the Gateway system (Invitrogen). […] The type of assay used here is a mammalian one hybrid (M1 H) assay that is known to those skilled in the art.

THP-1 macrophages = test: Cholesterol efflux from differentiated THP-1 macrophages; details: ApoA1, 10 uM, 24 h
Protocol: Methods: Cultures of the monocyte-macrophage cell line and the hepatocytes HepG2 are obtained from the American Type tissue Culture Collection, Rockville, Md. and were grown in RPMI 1640 medium supplemented with 10% fetal bovine serum, 10 mM HEPES, 2 mM pyruvate, 50 uM (3-Mercaptoethanol (THP-1) and Minimum essential medium (Eagle) with 2 mM L-glutamine and Earle's BSS supplemented with 10% fetal bovine serum, 2 mM glutamin, 0.1 mM non-essential amino acids, 1 mM sodium pyruvate (HepG2), respectively, at 37° C. in 5% CO2. THP-1 cells are differentiated into macrophages by addition of 100 nM Phorbol 12-Myristate 13-Acetate (PMA; Sigma P8139) and PMA included in the medium of all subsequent experiments to maintain differentiation. For cholesterol efflux measurements and triglyceride analysis cells are seeded in 6 well plates at 1.8×10^6 cells (THP-1) and 1×10^6 cells (HepG2) per well, respectively. CHOLESTEROL EFFLUX THP-1 cells are seeded in 6 well plates at 1×10^6 cells per well in RPMI 1640 medium containing 10% FCS and 100 nM TPA for 72 h. After washing with PBS cells are incubated 24 h with fresh in RPMI 1640 medium containing 10% FCS and 100 nM TPA. […] Medium is collected, centrifuged to remove cell debris and assayed for cholesterol using a commercial fluorometric kit (Molecular Probes A-12216). The remaining cellular proteins are lysed with 0.3 NNaOH and protein content measured with the Biorad Bradford reagent. THP-1 (1×10^6 cells per dish) cells were seeded in 6 well dishes in 3 ml modified RPMI 1640 medium (ATTC, Cat. […] After incubation for 24 hours, total cholesterol was determined from cell supernatant in each of the wells using an enzymatic assay with fluorescence read-out for the determination of cholesterol (Amplex Red Cholesterol Assay Kit (A-12213). The fluorescence readout per mg of total protein content as determined from cells that were present in the respective well are shown in FIGS. 9 or 11 as an example.

[1] = tested on: ABCA1 and ABCG1 in THP-1 cells; test: mRNA content of LXR target genes ABCA1 and ABCG1 in THP-1 cells (TaqMan)
Protocol: THP-1 (3×10^5 cells per dish) cells were seeded in […] RPMI-1640 medium (ATTC, Cat. No. 30-2001) containing 10% FCS (GIBCO) and 100 nM TPA and cultivated at 37° C. in 5% CO2 for 24 or 48 hours. HepG2 (4.5×10^5 cells per dish) were seeded in 24 well dishes in 3 ml DMEM Medium containing 10% FCS (GIBCO) and cultivated at 37° C. in 5% CO2 for 48 hours as indicated in FIG. 8B or until they are approx. 60% confluent.
The medium was then removed and replaced with medium containing 10% charcoal/stripped FCS (Hyclone) for 12 h.
LXR compounds are dissolved in DMSO, with the final solvent concentration never exceeding 0.125%. All treatments are done in triplicates and experiments repeated twice. Total RNA is extracted using the Qiagen Rneasy Mini Kit and treated with DNase (DNA free kit, Ambion). RNA is reverse transcribed with Oligo (dT) primer and real-time reverse transcription PCR (TaqMan) is performed using the ABI Prism 7900HT Sequence Detection System and reagents supplied by Applied Biosystems. mRNA steady state levels are normalised to H3 histone (H3F3A) expression levels.
The sequences of forward primers, reverse primers and TaqMan probes are as follows

GAL4-LXRb-LBD = biological target: T2, GAL4-LXRb-LBD (Homo sapiens, UniProt P55055); test: Mammalian one hybrid (M1H) luciferase assay in HEK293 cells, LXR beta LBD; details: for LXR beta LBD construct mediated luciferase activity compared with LXR alpha construct: M1H assay
T2 construct: expressed in transfected cells; host or cells: HEK293
T2 sequence (P55055 222-460 limits assumed): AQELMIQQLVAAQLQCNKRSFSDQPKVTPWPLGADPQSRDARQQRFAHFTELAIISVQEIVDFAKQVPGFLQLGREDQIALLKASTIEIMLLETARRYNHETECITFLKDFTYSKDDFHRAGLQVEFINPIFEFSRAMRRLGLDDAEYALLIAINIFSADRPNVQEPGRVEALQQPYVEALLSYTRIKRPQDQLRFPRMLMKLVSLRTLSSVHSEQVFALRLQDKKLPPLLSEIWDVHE
Protocol: as §1

Row | Compound | luciferase reporter gene expression mediated through GAL4-LXRa-LBD (GAL4-LXRa-LBD) | cholesterol export (THP-1 macrophages) | selectivity of upregulation of ABCA1 and ABCG1 in THP-1 cells versus FAS and SREBP-1c in HepG2 cells [1] | selectivity of upregulation of ABCA1 and ABCG1 in THP-1 cells versus FAS and SREBP-1c in HepG2 cells ([1]; listed as TR1040001892) | luciferase reporter gene expression mediated through GAL4-LXRb-LBD (GAL4-LXRb-LBD) | LXR beta LBD construct mediated luciferase activity compared with LXR alpha construct (GAL4-LXRb-LBD) | selectivity of upregulation of ABCA1 and ABCG1 in THP-1 cells versus FAS and SREBP-1c in HepG2 cells ([1]; listed as TR1040011382)
1 | C=CCn1c(N2C3CC(C)(C)CC2(C)C3)nc2ccc(I)cc2c1=O (centres unmarked) [formula (9)] | activate luciferase reporter gene expression in a dose dependent manner | marked increase | selective upregulation | selective transcriptional effect | activate luciferase reporter gene expression in a dose dependent manner | much stronger than with LXR alpha construct | –
2 | C=CCn1c(N2[C@@H]3CC(C)(C)C[C@@]2(C)C3)nc2cccc(F)c2c1=O [formula (12)] | activate luciferase reporter gene expression in a dose dependent manner | marked increase | reduced selectivity | – | activate luciferase reporter gene expression in a dose dependent manner | – | –
3 | CC(C)n1c(N2C3CC(C)(C)CC2(C)C3)nc2ccc(I)cc2c1=O (centres unmarked) [formula (10)] | activate luciferase reporter gene expression in a dose dependent manner | marked increase | selective upregulation | – | activate luciferase reporter gene expression in a dose dependent manner | much stronger than with LXR alpha construct | selective transcriptional effect
4 | CCCn1c(N2[C@@H]3CC(C)(C)C[C@@]2(C)C3)nc2cccc(F)c2c1=O [formula (11)] | activate luciferase reporter gene expression in a dose dependent manner | marked increase | reduced selectivity | – | activate luciferase reporter gene expression in a dose dependent manner | – | –
